Consider six compounds from patent US9163030B2 (priority 2012, dated 2015).

Like-named read-outs stand apart in the source and are kept apart here.

The target in data set [1] is T1, DOR (Mus musculus, UniProt P32300).
T1 construct: endogenous in cells; host or cells: NG108-15 neuroblastoma x glioma cells
The data set can be described thus: [35S]GTP-γ-S binding assay, NG108-15 cells. It is filed as biochemical. Conditions: for agonist activity DOR EC50: stimulation of [35S]GTP-γ-S binding, no stim = no stimulation.

The target of data set [2] is T2, MOR (Homo sapiens, UniProt P35372).
T2 construct: expressed in transfected cells; host or cells: CHO (hMOR-CHO)
In words: Opioid binding assay, displacement of [3H]DAMGO, hMOR-CHO cell membranes. Conditions: for selectivity ratio MOR/DOR: ratio of Ki values, CHO membranes.

Data set [3] concerns the target T2, MOR. In words: [35S]GTP-γ-S binding assay, hMOR-CHO cells. Format: biochemical. As to conditions: for agonist activity MOR EC50: stimulation of [35S]GTP-γ-S binding, no stim = no stimulation.
In data set [4] the target is T3, KOR (Homo sapiens, UniProt P41145).
T3 construct: expressed in transfected cells; host or cells: CHO (hKOR-CHO)
The data set can be described thus: biochemical. It is filed as binding.

Data set [5] concerns the target T4, DOR (Homo sapiens, UniProt P41143).
T4 construct: expressed in transfected cells; host or cells: CHO (hDOR-CHO)
In words: Opioid binding assay, displacement of [3H]DADLE, hDOR-CHO cell membranes.

Data set [6] addresses T3, KOR. The data set can be described thus: [35S]GTP-γ-S binding assay, hKOR-CHO cells. Format: biochemical.
For data set [7], the system named is mice. The data set can be described thus: 55° C. warm-water tail-withdrawal test. Format: in vivo, mouse. As to conditions: for Antinociceptive A50 Values: calculated at time of peak effect.
[8] abbreviates: normalized to stimulation by standard agonist.
Setting [9] is: ratio of Ki values, CHO membranes.
The mark [10] stands for this setting: shift in EC50 of standard agonist.

T4 sequence (P41143 whole entry): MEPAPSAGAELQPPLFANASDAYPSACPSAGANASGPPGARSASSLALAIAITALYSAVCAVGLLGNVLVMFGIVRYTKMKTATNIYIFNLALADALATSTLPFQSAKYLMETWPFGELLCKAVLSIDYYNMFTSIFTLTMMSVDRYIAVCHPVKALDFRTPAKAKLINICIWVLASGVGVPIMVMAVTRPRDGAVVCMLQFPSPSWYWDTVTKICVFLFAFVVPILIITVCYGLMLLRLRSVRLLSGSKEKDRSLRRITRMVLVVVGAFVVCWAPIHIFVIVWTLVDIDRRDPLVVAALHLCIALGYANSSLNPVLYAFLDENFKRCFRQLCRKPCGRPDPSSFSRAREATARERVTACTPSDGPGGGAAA
T3 sequence (P41145 whole entry): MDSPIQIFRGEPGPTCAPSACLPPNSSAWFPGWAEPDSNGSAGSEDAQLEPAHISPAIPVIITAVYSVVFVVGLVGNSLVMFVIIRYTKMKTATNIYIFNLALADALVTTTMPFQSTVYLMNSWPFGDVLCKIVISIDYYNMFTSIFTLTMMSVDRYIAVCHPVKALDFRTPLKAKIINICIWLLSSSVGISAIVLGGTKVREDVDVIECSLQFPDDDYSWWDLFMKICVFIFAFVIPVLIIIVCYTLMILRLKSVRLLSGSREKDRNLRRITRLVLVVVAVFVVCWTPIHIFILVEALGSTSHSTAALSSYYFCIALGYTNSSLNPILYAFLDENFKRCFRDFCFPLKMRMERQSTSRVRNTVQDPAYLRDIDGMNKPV
T2 sequence (P35372 whole entry): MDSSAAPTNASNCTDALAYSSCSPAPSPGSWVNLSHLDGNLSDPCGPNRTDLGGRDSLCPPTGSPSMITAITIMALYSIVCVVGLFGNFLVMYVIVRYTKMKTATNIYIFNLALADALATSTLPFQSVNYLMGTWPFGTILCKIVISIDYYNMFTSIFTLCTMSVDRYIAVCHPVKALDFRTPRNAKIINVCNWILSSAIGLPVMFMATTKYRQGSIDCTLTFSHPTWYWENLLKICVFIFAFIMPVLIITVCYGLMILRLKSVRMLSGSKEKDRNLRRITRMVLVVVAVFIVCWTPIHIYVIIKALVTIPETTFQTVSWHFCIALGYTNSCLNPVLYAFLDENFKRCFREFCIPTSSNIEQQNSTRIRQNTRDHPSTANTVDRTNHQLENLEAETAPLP
T1 sequence (P32300 whole entry): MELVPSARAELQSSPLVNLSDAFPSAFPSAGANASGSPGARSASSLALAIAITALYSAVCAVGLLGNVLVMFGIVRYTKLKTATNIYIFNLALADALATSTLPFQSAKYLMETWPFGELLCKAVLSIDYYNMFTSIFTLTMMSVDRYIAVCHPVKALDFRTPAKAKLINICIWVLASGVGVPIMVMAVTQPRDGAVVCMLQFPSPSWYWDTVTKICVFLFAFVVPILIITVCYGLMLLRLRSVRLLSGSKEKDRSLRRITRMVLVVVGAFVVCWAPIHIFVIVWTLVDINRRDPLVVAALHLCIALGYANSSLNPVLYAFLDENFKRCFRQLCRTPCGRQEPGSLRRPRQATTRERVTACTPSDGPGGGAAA

As to `COC12Cc3cc(-c4ccc(Cl)cc4)cnc3C3Oc4c(O)ccc5c4C31CCN(CC1CC1)C2C5` (stereo not drawn) [Compound 17a, 5′-(4-Chlorophenyl)-17-(cyclopropylmethyl)-6,7-didehydro-4,5α-epoxy-3-hydroxy-14-methoxypyrido[2′,3′:6,7]morphinan], the melting point was in the range of 170 to 173 °C. The “agonist activity DOR EC50” value in data set [1] was “no stim^b”. For the same compound, in data set [2], the Ki came to 41.9 ± 2.8 nM and the “selectivity ratio MOR/DOR” value was 22. In addition, in data set [3], the “agonist activity MOR EC50” value is “no stim”. Also, in data set [4], the “selectivity ratio KOR/DOR” value is listed as 2.8. The Ki in data set [4] (read-out: Ki ± SEM KOR) stood at 5.37 ± 0.48 nM. The compound further came in with a Ki in data set [5] of 1.95 ± 0.14 nM.
`Oc1ccc2c3c1OC1c4ncc(-c5ccc(Cl)cc5)cc4CC4(OCc5ccccc5)C(C2)N(CC2CC2)CCC314` (stereo not drawn) [Compound 17b, 14-(Benzyloxy)-5′-(4-chlorophenyl)-17-(cyclopropylmethyl)-6,7-didehydro-4,5α-epoxy-3-hydroxypyrido[2′,3′:6,7]morphinan] came in with a melting point of 130 to 132 °C. The “agonist activity DOR EC50” value in data set [1] is recorded as “no stim”. The same compound showed an EC50 in data set [6] of 27 ± 9 nM. In addition, the Emax in data set [6] (setting [8]) was 15 ± 1%. In data set [2], the Ki came out at 8.42 ± 0.29 nM and the “selectivity ratio MOR/DOR” value is given as 4.4. For the same compound, the “agonist activity MOR EC50” value in data set [3] was “no stim”. Further, in data set [4], the Ki was found to be 5.33 ± 0.27 nM and the “selectivity ratio KOR/DOR” value is reported as 2.8. Also, the Ki in data set [5] came to 1.91 ± 0.08 nM.
In turn, `Oc1ccc2c3c1OC1c4ncc(-c5ccc(Cl)cc5)cc4CC4(OCC=Cc5ccccc5)C(C2)N(CC2CC2)CCC314` (stereo not drawn) [Compound 17c, 5′-(4-Chlorophenyl)-14-cinnamyloxy-17-(cyclopropylmethyl)-6,7-didehydro-4,5α-epoxy-3-hydroxypyrido[2′,3′:6,7]morphinan] had a melting point of 138 to 140 °C. The “agonist activity DOR EC50” value in data set [1] is reported as “no stim”. Also, in data set [2], the Ki was 3.03 ± 0.38 nM and the “selectivity ratio MOR/DOR” value is 0.81. In data set [3], the “agonist activity MOR EC50” value was “no stim”. Moreover, in data set [4], the affinity, expressed as Ki, was 3.31 ± 0.3 nM and the “selectivity ratio KOR/DOR” value amounted to 0.89. Also, the affinity in data set [5], expressed as Ki, was 3.74 ± 0.32 nM.
As for `CN1CCC23c4c5ccc(O)c4OC2c2ncc(-c4ccc(Cl)cc4)cc2CC3(OCC=Cc2ccccc2)C1C5` (stereo not drawn) [Compound 17g, 5′-(4-Chlorophenyl)-14-cinnamyloxy-6,7-didehydro-4,5α-epoxy-3-hydroxy-17-methylpyrido[2′,3′:6,7]morphinan], in data set [1] (in words), the “functional activity profile at DOR” value is listed as “weak to potent partial agonist activity at DOR”. Further, the Emax came to 84% in data set [1] (read-out: agonist activity DOR Emax) and 130 ± 3% in data set [3] (normalized to stimulation by DAMGO, read-out: agonist activity MOR Emax). Moreover, the “Antinociceptive A50 Values” in data set [7] (icv) was 0.23 nmol. Besides, the antinociceptive effect entry in data set [7] (icv, in words) was “full antinociceptive effects”. Moreover, in data set [7] (naloxone 10 mg/kg ip, -10 min, icv test compound), the “effect of naloxone pretreatment on antinociceptive effect” value is “blocked by naloxone pretreatment”. In addition, the Ki in data set [2] was determined as 0.41 ± 0.04 nM; in data set [4] (read-out: Ki ± SEM KOR), 1.55 ± 0.09 nM; in data set [5] it was 1.14 ± 0.11 nM. Further, the “selectivity ratio MOR/DOR” value in data set [2] was determined as 0.36. This compound also showed an EC50 in data set [3] of 4.27 nM. Moreover, in data set [4] (setting [9]), the “selectivity ratio KOR/DOR” value came out at 1.4.
On to `O=C(CCc1ccccc1)O[C@@]12Cc3cc(-c4ccc(Cl)cc4)cnc3[C@@H]3Oc4c(O)ccc5c4[C@@]31CCN(CC1CC1)[C@@H]2C5` [Compound 18c, 5′-(4-Chlorophenyl)-17-(cyclopropylmethyl)-6,7-didehydro-4,5α-epoxy-3-hydroxy-14-(3-phenylpropionyloxy)pyrido[2′,3′:6,7]morphinan], for which, in data set [1] (setting [10]), the “antagonist activity DOR Ke” value is reported as 1.86 ± 0.21 nM. For the same compound, in data set [1], the “agonist activity DOR EC50” value is listed as “no stim”. The “agonist activity KOR Emax” value in data set [6] (setting [8]) turned out to be 25 ± 1%. Besides, the “antagonist activity KOR Ke” value in data set [6] (setting [10]) came to 14 ± 2 nM. Also, the EC50 in data set [6] (stimulation of [35S]GTP-γ-S binding, no stim = no stimulation, read-out: agonist activity KOR EC50) is 13 ± 4 nM. In addition, in data set [2], the “selectivity ratio MOR/DOR” value is reported as 0.62. The Ki was found to be 2.58 ± 0.12 nM in data set [2] (read-out: Ki ± SEM MOR), 12 ± 13 nM in data set [4] (read-out: Ki ± SEM KOR) and 4.13 ± 0.29 nM in data set [5] (read-out: Ki ± SEM DOR). In addition, the “antagonist activity MOR Ke” value in data set [3] (setting [10]) turned out to be 13 ± 1.7 nM. For the same compound, the “agonist activity MOR EC50” value in data set [3] is listed as “no stim”. In data set [4] (setting [9]), the “selectivity ratio KOR/DOR” value worked out at 2.9.
In the case of `CN1CC[C@]23c4c5ccc(O)c4O[C@H]2[C@@H](O)C=C[C@H]3[C@H]1C5` [morphine, reference compound], the “Antinociceptive A50 Values” in data set [7] (icv) is listed as 0.43 nmol.
